Experimental data from US20250101065A1, “REVERSE PEPTIDES FROM CORONAVIRUS FOR IMMUNOGENIC PURPOSES” (Emergex Vaccines Holding Limited, priority 2021, published 2025).
No end group written: not given here.

Assays:
CD3+ T cells of PBMCs = assay: Flow cytometry analysis of T cell surface markers after peptide stimulation of PBMCs; format: cell-based, human
Experimental: At day 7 post-stimulation, remaining PBMCs were resuspended in flow cytometry buffer (PBS+1% BSA+2 mM EDTA) at a concentration of 1×10^6 cells/mL, and blocked for at least 10 minutes. Cells were then aliquoted in a 96-well plate, centrifuged (5 mins/[…]/300×g), and resuspended in 45 μL buffer. Live/Dead stain was added (Fixable Near IR) at 1 μL in 1000 μL, and cells incubated at […] for 10 minutes in the dark. 120 μL buffer was added, samples were centrifuged for 5 mins, supernatants discarded and wash repeated with 200 μL buffer. Cells were then resuspended in buffer containing antibodies to T cell markers at the appropriate concentration (final staining volume 50 μL) and incubated for at least 30 minutes in the dark at […]
120 μL buffer was added to cell samples, centrifuged for 5 mins, supernatants discarded. This wash step was then repeated. Compensation beads were incubated with the individual antibodies at the same concentration. Voltages on the Attune flow cytometer were adjusted using antibody-stained compensation beads, as well as unstained and NIR-stained cells.
Acquisition was set to acquire at least 150,000 events on CD3 gated cells.
PBMCs were stained with a panel of antibodies (as listed in the previous section) against cell surface markers to characterize different T cell populations, such as naïve T cells (A), Central memory T cells (B), Effector memory T cells (C) and (D), and resident memory T cells (E). In addition, activation markers were also analysed (F) to (I). The percentage of positive cells gated on CD3+T cell populations were plotted.

human PBMCs = assay: IFN-gamma ELISPOT after stimulation of PBMCs with negative sense SARS-COV-2 peptides; format: cell-based
[1] = PBMCs from EVB00028, day 7 post-stimulation

**Q.** “LYVALLVALLTCQ [SEQ ID NO: 6, LYVALLVALLTCQ]” was tested. Which “Activation of CD3+ cells (upregulation of CD69, CD38, OX40/CD25, PDL1/CD25)” value (CD3+ T cells of PBMCs; [1]) did it give?
**A.** Its value is “induced activation”.

**Q.** What about the “Activation of CD3+ cells (upregulation of CD69, CD38, OX40/CD25, PDL1/CD25)” value (CD3+ T cells of PBMCs; PBMCs from EVB00033, day 7 post-stimulation) of the same sequence?
**A.** Its value is “similarly activated”.

**Q.** And the “IFN-gamma ELISPOT reactivity” value (human PBMCs; all three donors (EVB00028, EVB00031, EVB00033), 7 days stimulation, 24 h re-stimulation)?
**A.** The value was “strong reactivity”.

**Q.** What does the source list for VALLTCQTIGLCN [SEQ ID NO: 11]?
**A.** Activation of CD3+ cells (upregulation of CD69, CD38, OX40/CD25, PDL1/CD25) (CD3+ T cells of PBMCs; [1]): induced activation; IFN-gamma ELISPOT reactivity (human PBMCs; donor EVB00033): reacted strongly

**Q.** VFTLHSRTSF [SEQ ID NO: 12] was tested. Which “IFN-gamma ELISPOT reactivity” value (human PBMCs; donors EVB00028 and EVB00031) did it give?
**A.** Its value is “reacted strongly”.
